*1 amine or outer side, *2 acyl side, *3 side chain or, on linkers, in order; H or OH if unused. Where a SMILES comes first, the peptide text is derived from it. Bridges are numbered along the chain shown (N, C = ends). Roman numbers before positions name the chains, in order. [ ]: non-standard residue; d: D form. Bip = N[C@@H](Cc1ccc(-c2ccccc2)cc1)C(=O)O; Diglycolyl = O=C(COCC(=O)[*:2])[*:1]; NMeR = CN[C@@H](CCCNC(=N)N)C(=O)O; Tic = O=C(O)[C@@H]1Cc2ccccc2CN1; X1 = O=C(c1ccccc1C[*:2])[*:1]; Pen = CC(C)(S)[C@H](N)C(=O)O

The experiment concerns the target T1, RPMI 8866 cells (Homo sapiens, UniProt P13612+P26010).
T1 sequence (P13612 34-1032): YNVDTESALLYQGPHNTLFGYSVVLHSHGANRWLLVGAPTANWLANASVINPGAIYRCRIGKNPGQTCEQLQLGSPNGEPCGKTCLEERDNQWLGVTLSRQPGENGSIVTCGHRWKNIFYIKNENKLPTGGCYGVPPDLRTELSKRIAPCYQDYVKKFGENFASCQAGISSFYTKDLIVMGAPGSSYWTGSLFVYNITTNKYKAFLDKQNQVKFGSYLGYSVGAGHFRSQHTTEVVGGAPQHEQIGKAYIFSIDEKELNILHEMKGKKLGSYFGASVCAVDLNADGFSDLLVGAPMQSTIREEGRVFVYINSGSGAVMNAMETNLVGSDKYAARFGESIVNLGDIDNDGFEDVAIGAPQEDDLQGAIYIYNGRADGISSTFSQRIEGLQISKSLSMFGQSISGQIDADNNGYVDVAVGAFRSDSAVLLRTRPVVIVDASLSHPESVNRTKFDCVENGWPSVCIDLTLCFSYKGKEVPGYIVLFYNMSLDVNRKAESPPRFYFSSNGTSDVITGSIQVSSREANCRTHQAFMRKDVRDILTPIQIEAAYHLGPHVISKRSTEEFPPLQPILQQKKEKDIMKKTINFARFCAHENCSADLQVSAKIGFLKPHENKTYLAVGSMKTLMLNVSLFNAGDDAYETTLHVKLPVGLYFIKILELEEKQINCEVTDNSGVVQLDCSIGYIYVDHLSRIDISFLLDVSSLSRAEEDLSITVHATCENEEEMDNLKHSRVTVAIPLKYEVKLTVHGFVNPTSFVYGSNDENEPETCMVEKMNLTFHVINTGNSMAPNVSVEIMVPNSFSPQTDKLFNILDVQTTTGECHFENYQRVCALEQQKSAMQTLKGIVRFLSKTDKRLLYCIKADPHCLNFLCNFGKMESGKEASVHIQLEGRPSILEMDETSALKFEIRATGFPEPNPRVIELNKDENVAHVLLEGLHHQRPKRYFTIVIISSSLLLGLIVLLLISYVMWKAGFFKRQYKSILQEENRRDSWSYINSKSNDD
T1 sequence (P26010 20-798): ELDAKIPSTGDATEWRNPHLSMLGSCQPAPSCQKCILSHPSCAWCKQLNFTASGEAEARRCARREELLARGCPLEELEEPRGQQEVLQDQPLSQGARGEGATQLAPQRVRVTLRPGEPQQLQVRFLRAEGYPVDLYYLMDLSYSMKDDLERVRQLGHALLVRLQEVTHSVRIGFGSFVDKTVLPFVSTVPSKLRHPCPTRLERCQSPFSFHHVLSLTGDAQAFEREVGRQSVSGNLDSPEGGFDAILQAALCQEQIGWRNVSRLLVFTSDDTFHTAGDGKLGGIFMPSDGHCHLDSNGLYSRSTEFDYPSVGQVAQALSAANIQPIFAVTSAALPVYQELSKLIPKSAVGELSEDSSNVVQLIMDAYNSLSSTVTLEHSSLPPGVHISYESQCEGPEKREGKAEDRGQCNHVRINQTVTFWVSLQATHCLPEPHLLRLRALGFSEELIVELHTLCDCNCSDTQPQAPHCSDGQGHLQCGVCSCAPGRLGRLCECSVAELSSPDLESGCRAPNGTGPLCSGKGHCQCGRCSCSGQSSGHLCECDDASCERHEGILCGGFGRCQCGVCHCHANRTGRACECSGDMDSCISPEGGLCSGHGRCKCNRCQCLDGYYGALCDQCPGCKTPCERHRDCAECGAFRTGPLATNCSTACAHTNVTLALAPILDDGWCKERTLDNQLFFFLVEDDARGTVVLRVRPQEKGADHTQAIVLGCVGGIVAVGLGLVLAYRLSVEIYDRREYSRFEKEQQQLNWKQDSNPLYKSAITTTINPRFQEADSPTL
Put plainly: α4β7-MAdCAM Cell Adhesion Assay. The conditions noted are these: thioether peptide dimers, Table 7; read-out: Cell-Adhesion A4B7. The class given is cell-based. In short, it runs like this: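 RPMI 8866 cells (200,000/well) in DMEM with 1 mM MnCl2 and 0.1% BSA were allowed to adhere 30-45 min at 37° C to plates coated with rh MAdCAM-1/Fc (200 ng/well) in presence of serially diluted peptide. After washing, bound cells quantified by MTT, absorbance 570 nm, cell-free background subtracted.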
As for `CC(C)C[C@@H]1NC(=O)[C@H]([C@@H](C)O)NC(=O)[C@H](CC(=O)O)NC(=O)[C@H](CO)NC(=O)[C@H](CCCNC(=N)N)N(C)C(=O)c2ccccc2CSC(C)(C)[C@@H](C(=O)N[C@@H](Cc2ccccc2)C(=O)N[C@H](CCC(=O)O)C(=O)N[C@H](CCCCNC(=O)COCC(=O)NCCCC[C@@H](NC(=O)[C@@H](CCC(=O)O)NC(=O)[C@H](Cc2ccccc2)NC(=O)[C@H]2NC(=O)[C@H](CC(C)C)NC(=O)[C@H]([C@@H](C)O)NC(=O)[C@H](CC(=O)O)NC(=O)[C@H](CO)NC(=O)[C@H](CCCNC(=N)N)N(C)C(=O)c3ccccc3CSC2(C)C)C(=O)O)C(=O)O)NC1=O` [compound 204] (I: [NMeR]SDTL[Pen]F[dE][dK]-OH / II: [NMeR]SDTL[Pen]F[dE][dK]-OH; linker I:9-II:9 via Diglycolyl; linker I:N-I:6, II:N-II:6 via X1), the IC50 is less than 25 nM.

In the case of `CC(C)C[C@@H]1NC(=O)[C@H]([C@@H](C)O)NC(=O)[C@H](CC(=O)O)NC(=O)[C@H](CO)NC(=O)[C@H](CCCNC(=N)N)N(C)C(=O)c2ccccc2CSC[C@@H](C(=O)N2Cc3ccccc3C[C@H]2C(=O)N[C@H](CCC(=O)O)C(=O)N[C@H](CCCCNC(=O)COCC(=O)NCCCC[C@@H](NC(=O)[C@@H](CCC(=O)O)NC(=O)[C@@H]2Cc3ccccc3CN2C(=O)[C@@H]2CSCc3ccccc3C(=O)N(C)[C@@H](CCCNC(=N)N)C(=O)N[C@@H](CO)C(=O)N[C@@H](CC(=O)O)C(=O)N[C@@H]([C@@H](C)O)C(=O)N[C@@H](CC(C)C)C(=O)N2)C(=O)O)C(=O)O)NC1=O` [compound 207] (I: [NMeR]SDTLC[Tic][dE][dK]-OH / II: [NMeR]SDTLC[Tic][dE][dK]-OH; linker I:9-II:9 via Diglycolyl; linker I:N-I:6, II:N-II:6 via X1), the IC50 was less than 25 nM.

With `CC(C)C[C@@H]1NC(=O)[C@H]([C@@H](C)O)NC(=O)[C@H](CC(=O)O)NC(=O)[C@H](CO)NC(=O)[C@H](CCCNC(=N)N)N(C)C(=O)c2ccccc2CSC(C)(C)[C@@H](C(=O)N[C@@H](Cc2ccc(-c3ccccc3)cc2)C(=O)N[C@H](CCC(=O)O)C(=O)N[C@H](CCCCNC(=O)COCC(=O)NCCCC[C@@H](NC(=O)[C@@H](CCC(=O)O)NC(=O)[C@H](Cc2ccc(-c3ccccc3)cc2)NC(=O)[C@H]2NC(=O)[C@H](CC(C)C)NC(=O)[C@H]([C@@H](C)O)NC(=O)[C@H](CC(=O)O)NC(=O)[C@H](CO)NC(=O)[C@H](CCCNC(=N)N)N(C)C(=O)c3ccccc3CSC2(C)C)C(=O)O)C(=O)O)NC1=O` [compound 208] (I: [NMeR]SDTL[Pen][Bip][dE][dK]-OH / II: [NMeR]SDTL[Pen][Bip][dE][dK]-OH; linker I:9-II:9 via Diglycolyl; linker I:N-I:6, II:N-II:6 via X1), the IC50 is less than 25 nM.

As to `CC(C)C[C@@H]1NC(=O)[C@H]([C@@H](C)O)NC(=O)[C@H](CC(=O)O)NC(=O)[C@H](CO)NC(=O)[C@H](CCCNC(=N)N)N(C)C(=O)c2ccccc2CSC(C)(C)[C@@H](C(=O)N[C@@H](Cc2c[nH]c3ccccc23)C(=O)N[C@H](CCC(=O)O)C(=O)N[C@H](CCCCNC(=O)COCC(=O)NCCCC[C@@H](NC(=O)[C@@H](CCC(=O)O)NC(=O)[C@H](Cc2c[nH]c3ccccc23)NC(=O)[C@H]2NC(=O)[C@H](CC(C)C)NC(=O)[C@H]([C@@H](C)O)NC(=O)[C@H](CC(=O)O)NC(=O)[C@H](CO)NC(=O)[C@H](CCCNC(=N)N)N(C)C(=O)c3ccccc3CSC2(C)C)C(=O)O)C(=O)O)NC1=O` [compound 209] (I: [NMeR]SDTL[Pen]W[dE][dK]-OH / II: [NMeR]SDTL[Pen]W[dE][dK]-OH; linker I:9-II:9 via Diglycolyl; linker I:N-I:6, II:N-II:6 via X1), the IC50 was less than 25 nM.

(Values after patent US20260217767A1, “NOVEL A4B7 THIOETHER PEPTIDE DIMER ANTAGONISTS” (Protagonist Therapeutics, Inc., priority 2014, published 2026).)
